Reference: ChEMBL document CHEMBL1145258, “Geometry, topology, and atom-weights assembly descriptors to predicting A1 adenosine receptors agonists” (Bioorg Med Chem Lett, 2005)

molecular target: T1, Adenosine receptor A1 (Rattus norvegicus, UniProt P25099); assay: Inhibition of [3H]R-PIA binding to Adenosine A1 receptor from rat brain membrane
T1 sequence (P25099 whole entry): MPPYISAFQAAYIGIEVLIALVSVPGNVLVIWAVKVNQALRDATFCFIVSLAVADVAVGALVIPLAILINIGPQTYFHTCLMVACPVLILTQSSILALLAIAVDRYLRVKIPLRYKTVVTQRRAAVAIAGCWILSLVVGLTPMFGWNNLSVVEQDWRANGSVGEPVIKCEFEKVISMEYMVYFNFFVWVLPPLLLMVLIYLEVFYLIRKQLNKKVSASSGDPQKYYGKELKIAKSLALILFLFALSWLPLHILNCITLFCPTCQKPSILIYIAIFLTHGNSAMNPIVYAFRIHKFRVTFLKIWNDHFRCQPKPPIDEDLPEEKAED

Ki | Compound
725 nM | CCNC(=O)[C@@H]1OC(n2cnc3c(NC(=O)Nc4ccc(S(=O)(=O)Nc5ncccn5)cc4)ncnc32)[C@@H](O)[C@H]1O (some centres undefined)
292 nM | CCNC(=O)[C@H]1OC(n2cnc3c(NC(=O)Nc4ccc(S(=O)(=O)Nc5ccccn5)cc4)ncnc32)[C@H](O)[C@@H]1O (some centres undefined)
901 nM | CCNC(O)[C@H]1O[C@@H](n2cnc3c(NC(=O)Nc4ccc(S(=O)(=O)Nc5cc(C)on5)cc4)ncnc32)[C@H](O)[C@@H]1O (some centres undefined)
16 nM | CCNC(=O)[C@H]1OC(n2cnc3c(NC(=O)c4ccc(Cl)cc4Cl)ncnc32)[C@H](O)[C@@H]1O (some centres undefined)
